We go through twelve molecules from patent publication US20250230138A1, “COMPOUNDS HAVING A T-STRUCTURE FORMED BY AT LEAST FOUR CYCLES FOR USE IN THE TREATMENT OF CANCER AND OTHER INDICATIONS” (TheRas, Inc., priority 2022, published 2025).

The target in test [1] is Cys242 in human PIK3CA (157-299) (Homo sapiens (Human), UniProt P42336). The test is described as follows: Covalent modification assay using MALDI-TOF MS. The settings on record: 4 h reaction time point; 3.33 μM protein target, 1:7.5 protein to compound ratio (compounds 1-852). In kind it is biochemical. In a few lines:
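PIK3CA (157-299), 3.33 or 1 μM in 20 mM HEPES, 150 mM NaCl, 2 mM MgCl2, pH 7.3, was incubated with compound at room temperature in the dark for 15 min, 30 min, 2 h or 4 h. Linear MALDI-TOF read-out; % modification = adduct peak height over summed heights of all protein species.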

Test [2] relates to pAKT in Tet-on KRAS G12D HeLa cells. The test is described as follows: Cell-based pAKT HTRF assay in Tet-on KRAS G12D HeLa cells. The settings on record: read-out: pAKT inhibition IC50 in Tet-on KRAS G12D HeLa cells. The procedure: To determine the effectiveness of compounds in disrupting PIK3CA/KRAS signaling in cells, we implemented pAKT HTRF assay (Perkin-Elmer) in Tet-on KRAS G12D HeLa cells.
On Day 1, cells were seeded into 96-well plates at 2×10^4 cells/well in complete growth media (DMEM, 10% Tet-Screened FBS) supplemented with 200 ng/mL doxycycline.
On Day 2, cells were treated with compounds at 0.25% DMSO. The source plate was created with compounds diluted in media at 5-fold the final assay concentration. The compounds are run in a 9-point concentration curve starting at 75 μM, with a 3-fold dilution between concentrations. […] 20 μL was transferred onto the cell plates (final volume in wells was 100 μL). Plates were harvested after 30 min and 4 hr incubation by aspirating media and adding kit-supplied 1× supplemented lysis buffer to all wells (50 μL per well). This then changed to 4 hr only when compounds became covalent. Plates were then placed on a plate shaker and incubated at 850 rpm for an additional 30 min. The antibody mixture solution was prepared by diluting aliquoted d2 and Eu Cryptate antibodies 1:20 in kit supplied detection buffer, then mixed the diluted antibodies solutions (1:1 v:v). 4 μL of this solution was then added to a 384-well detection plate (Perkin Elmer; 6008230). Samples were homogenized by pipetting up and down and then transferred (16 μL of cell lysates) from the 96-well cell culture plate to two wells of the HTRF 384-well detection plate containing the antibody solution. Plates were centrifuged (524 g for 1 min) and allowed to incubate between 4 and 24 h at room temperature. The maximum signal is reached after 4 h incubation time and remains stable over a period of 24 hours. Therefore, readings can be made between 4 and 24 h of incubation. Plates were centrifuged again (524 g for 1 min), and analyzed on the EnVision plate reader using the following settings: Excitation 320 nm, Bandwidth […]; Emission 615 nm, Bandwidth […], Gain 100%, Flashes 100, Lag 60 μs.

Test [3] deals with KRAS-PI3Kα interaction (KRAS-Q25A binding to avi-tagged full length PI3Kα) (Homo sapiens (Human), UniProt P42336). The test is described as follows: Disrupting KRAS-PI3Kα interaction by SPR inhibition assay. The settings on record: KRAS-Q25A at 20 μM, 25° C. The protocol: SPR binding experiments were collected on a Biacore 8K Instrument (Cytiva). Neutravidin (Pierce) was amine coupled to the carboxymethylated dextran surface of a CM5 sensor chip (Cytiva) using standard amine coupling chemistry. The CM5 chip surface was first activated with 0.1 M N-hydroxy succinimide and 0.4 M N-ethyl-N′-(3-dimethyl aminopropyl) carbodiimide at a flow rate of 20 μL/min using 20 mM HEPES pH 7.4, 150 mM NaCl as the running buffer. Next, neutravidin was diluted to 20 μg/mL in 10 mM sodium acetate (pH 4.5) and injected on all flow cells until a density of approximately 10,000 response units (RU) was immobilized. Activated amine groups were quenched with an injection of 1 M ethanolamine (pH 8.0). 300-500 RU of avi-tagged full length PI3Kα was captured on all flow cells in 20 mM HEPES pH 7.4, 150 mM NaCl, 5 mM MgCl2, 1 mM TCEP, 0.05% tween 20, 5% DMSO buffer. KRAS-Q25A at 20 μM was mixed with 8 concentrations of compound (50 nM-100 μM) and injected over the full-length PI3Kα at 30 μL/min and 25° C. Steady-state levels of KRAS binding were recorded and fit with a 4-parameter inhibition model to determine the IC50 values.
Chain of KRAS-PI3Kα interaction (KRAS-Q25A binding to avi-tagged full length PI3Kα) (P42336 whole entry, looked up, stated change not applied): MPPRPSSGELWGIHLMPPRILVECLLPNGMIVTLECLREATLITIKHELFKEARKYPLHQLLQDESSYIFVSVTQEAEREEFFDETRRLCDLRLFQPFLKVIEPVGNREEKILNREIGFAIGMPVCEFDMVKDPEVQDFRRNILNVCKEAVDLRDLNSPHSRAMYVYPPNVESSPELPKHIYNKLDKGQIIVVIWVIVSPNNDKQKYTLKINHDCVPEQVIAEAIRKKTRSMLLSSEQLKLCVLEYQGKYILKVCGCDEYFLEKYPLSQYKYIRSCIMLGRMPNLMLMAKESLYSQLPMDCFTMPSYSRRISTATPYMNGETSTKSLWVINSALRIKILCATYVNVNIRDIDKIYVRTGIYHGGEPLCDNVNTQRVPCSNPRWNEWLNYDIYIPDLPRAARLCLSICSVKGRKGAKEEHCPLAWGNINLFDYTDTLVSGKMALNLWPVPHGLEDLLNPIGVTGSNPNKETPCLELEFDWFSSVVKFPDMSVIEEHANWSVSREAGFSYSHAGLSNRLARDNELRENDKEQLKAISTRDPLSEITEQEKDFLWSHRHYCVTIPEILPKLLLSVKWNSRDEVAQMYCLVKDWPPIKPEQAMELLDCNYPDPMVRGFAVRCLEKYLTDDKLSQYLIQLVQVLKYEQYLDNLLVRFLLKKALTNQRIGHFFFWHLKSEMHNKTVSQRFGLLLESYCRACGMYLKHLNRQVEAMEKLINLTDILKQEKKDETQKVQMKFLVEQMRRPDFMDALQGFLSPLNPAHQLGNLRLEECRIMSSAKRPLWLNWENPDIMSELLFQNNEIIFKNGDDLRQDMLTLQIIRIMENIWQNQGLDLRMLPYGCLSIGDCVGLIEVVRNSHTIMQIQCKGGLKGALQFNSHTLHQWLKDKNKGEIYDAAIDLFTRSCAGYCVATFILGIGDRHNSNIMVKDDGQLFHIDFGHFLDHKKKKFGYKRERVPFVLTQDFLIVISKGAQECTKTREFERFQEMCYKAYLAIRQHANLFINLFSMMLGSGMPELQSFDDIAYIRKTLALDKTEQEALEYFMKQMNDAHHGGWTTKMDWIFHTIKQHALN
Chain of KRAS-PI3Kα interaction (KRAS-Q25A binding to avi-tagged full length PI3Kα) (P27986 whole entry partner, looked up): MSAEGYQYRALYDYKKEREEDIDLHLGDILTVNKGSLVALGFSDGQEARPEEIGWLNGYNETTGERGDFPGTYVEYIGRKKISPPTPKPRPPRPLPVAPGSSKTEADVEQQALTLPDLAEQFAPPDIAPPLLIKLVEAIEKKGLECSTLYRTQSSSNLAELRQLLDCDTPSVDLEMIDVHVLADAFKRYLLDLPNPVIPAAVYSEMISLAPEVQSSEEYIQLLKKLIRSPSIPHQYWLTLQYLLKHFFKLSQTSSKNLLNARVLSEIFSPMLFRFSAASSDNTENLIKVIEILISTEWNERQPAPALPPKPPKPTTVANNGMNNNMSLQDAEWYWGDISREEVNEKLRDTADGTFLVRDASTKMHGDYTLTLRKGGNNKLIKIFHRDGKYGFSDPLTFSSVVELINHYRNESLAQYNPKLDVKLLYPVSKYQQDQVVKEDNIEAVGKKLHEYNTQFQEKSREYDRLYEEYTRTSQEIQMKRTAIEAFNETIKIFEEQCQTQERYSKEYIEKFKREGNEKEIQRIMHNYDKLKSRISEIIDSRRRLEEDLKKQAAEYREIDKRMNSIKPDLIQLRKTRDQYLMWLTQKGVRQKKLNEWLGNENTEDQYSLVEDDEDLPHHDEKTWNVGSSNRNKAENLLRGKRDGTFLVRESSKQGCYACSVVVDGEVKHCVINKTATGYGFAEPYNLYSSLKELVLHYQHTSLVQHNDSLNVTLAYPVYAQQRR

Test [4] deals with pAKT in BT474 cells. In words: Cell-based pAKT HTRF assay in BT474 cells. The conditions noted are these: BT474 cells; 4 hr incubation; Compounds 10-999; read-out: pAKT inhibition IC50 in BT474 cells. In a few lines:
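Cells are seeded on day 1 and dosed on day 2 with a 9-point curve (3 μM top, 3-fold). After 4 hr they are lysed and the lysate is mixed with d2- and Eu Cryptate-labelled antibodies. HTRF is read after 4–24 h at room temperature.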
(Time-resolved FRET reads energy transfer from a long-lived donor to a nearby acceptor.)

Where two headings read alike, the source gives them in different places.

Chain of Cys242 in human PIK3CA (157-299) (P42336 157-299): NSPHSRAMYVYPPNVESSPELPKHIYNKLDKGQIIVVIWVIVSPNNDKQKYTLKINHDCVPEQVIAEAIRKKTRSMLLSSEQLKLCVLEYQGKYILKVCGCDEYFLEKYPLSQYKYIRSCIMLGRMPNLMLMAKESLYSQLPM

The term IC50 denotes the midpoint of a concentration-inhibition curve. As for `C=CC(=O)Nc1cccc(-c2nc(-c3ccc4c(c3)CCC(N(C)C)C4)c3ccsc3c2-c2ccc(F)cc2OCCOC)c1` (stereo not drawn) [compound 36], in test [1], the “% of modification” value is reported as “A (percent of modification of PIK3CA protein ≥75%)”. Further, the IC50 in test [2] (Tet-on KRAS G12D HeLa cells) was 1000 to 10000 nM; in test [3], less than 5 µM.

For the molecule `C=CC(=O)N1CCC(n2cc(-c3nc(-c4ccc5c(c4)CCN(C)C5)c4ccsc4c3-c3ccc(F)cc3OCCOC)cn2)C1` (stereo not drawn) [compound 43], in test [1], the “% of modification” value was “A (percent of modification of PIK3CA protein ≥75%)”. Besides, the IC50 in test [2] (Tet-on KRAS G12D HeLa cells) was less than 1000 nM; in test [3], 5 to 25 µM.

With `C=CC(=O)NCCc1cccc(-c2nc(-c3ccc4c(c3)CCNC4)c3ccsc3c2-c2ccc(F)cc2OCCOC)c1` [compound 40], the “% of modification” value in test [1] is reported as “A (percent of modification of PIK3CA protein ≥75%)”. Also, the IC50 was 1000 to 10000 nM in test [2] (Tet-on KRAS G12D HeLa cells) and less than 5 µM in test [3].

In the case of `COCCOc1cc(F)ccc1-c1c(-c2cccc(CNC(=O)C(C)C)c2)nc(-c2ccc3c(c2)CCNC3)c2ccsc12` [compound 10], the IC50 in test [2] (Tet-on KRAS G12D HeLa cells) is 1000 to 10000 nM; in test [3], less than 5 µM; in test [4], 1000 to 3000 nM.

For `C=CC(=O)N1CCC(n2cc(-c3nc(-c4ccc5c(c4)CCNC5)c4ccsc4c3-c3ccc(F)cc3OCCOC)cn2)CC1` [compound 30], the “% of modification” value in test [1] is “A (percent of modification of PIK3CA protein ≥75%)”. For the same molecule, the results for the IC50 in test [2] (Tet-on KRAS G12D HeLa cells) and in test [3] were less than 1000 nM and 5 to 25 µM, respectively.

Take `C=CC(=O)NCc1cccc(-c2nc(-c3ccc4c(c3)CCNC4)c3ccsc3c2-c2ccc(F)cc2OCCOC)c1` [Compound 11, N-[[3-[7-[4-fluoro-2-(2-methoxyethoxy)phenyl]-4-(1,2,3,4-tetrahydroisoquinolin-6-yl)thieno[3,2-c]pyridin-6-yl]phenyl]methyl]prop-2-enamide]: in test [1], the “% of modification” value was “C (25%≤percent of modification <50%)”. Moreover, the IC50 in test [2] (Homo sapiens, HeLa) is 1000 to 10000 nM; in test [3], less than 5 µM.

In the case of `Fc1ccc(-c2c(-c3ccccc3)nc(-c3ccc4c(c3)CCNC4)c3ccsc23)c(OCc2ncccc2F)c1` [compound 7], the 50% inhibitory concentration (IC50) in test [2] (Tet-on KRAS G12D HeLa cells) lay within 1000 to 10000 nM; in test [3], 5 to 25 µM.

Take `COCCOc1cc(F)ccc1-c1c(-c2cccc(CN)c2)nc(-c2ccc3c(c2)CCNC3)c2ccsc12` [compound 16]: the results for the IC50 in test [2] (Tet-on KRAS G12D HeLa cells) and in test [3] were 1000 to 10000 nM and 5 to 25 µM, respectively.

`C=CC(=O)N1CC[C@@H](n2cc(-c3nc(-c4ccc5c(c4)CCNC5)c4ccsc4c3-c3ccc(F)cc3OCCOC)cn2)C1` [compound 46]: the “% of modification” value in test [1] is listed as “A (percent of modification of PIK3CA protein ≥75%)”. The half-maximal inhibitory concentration (IC50) in test [2] (Tet-on KRAS G12D HeLa cells) is less than 1000 nM; in test [3], 5 to 25 µM.

Consider `COCCOc1cc(F)ccc1-c1c(-c2cccc(C#N)c2)nc(-c2ccc3c(c2)CCNC3)c2ccsc12` [Compound 8], for which the IC50 in test [2] (Tet-on KRAS G12D HeLa cells) was more than 10000 nM; in test [3], more than 25 µM.

With `C=CC(=O)Nc1cccc(-c2nc(-c3ccc4c(c3)CCN(C)C4)c3ccsc3c2-c2ccc(F)cc2OCCOC)c1` [compound 32], the “% of modification” value in test [1] is reported as “A (percent of modification of PIK3CA protein ≥75%)”. The IC50 is less than 1000 nM in test [2] (Tet-on KRAS G12D HeLa cells) and 5 to 25 µM in test [3].

Regarding `C=CC(=O)NCc1cccc(-c2nc(-c3ccc4c(c3)CCNC4)c3c(c2-c2ccccc2OCCOC)CCC3)c1` [Compound 1, N-(3-(4-(2-(2-methoxvethoxy)phenyl)-1-(1,2,3,4-tetrahydroisoquinolin-6-yl)-6,7-dihydro-5H-cyclopenta[c]pyridin-3-yl)benzyl)acrylamide], the “% of modification” value in test [1] is given as “D (percent of modification <25%)”. Besides, the figures for the IC50 in test [2] (Tet-on KRAS G12D HeLa cells) and in test [3] were 1000 to 10000 nM and 5 to 25 µM, respectively.
